Test results reported in patent US20240245677A1, “SELECTED COMPOUNDS FOR TARGETED DEGRADATION OF BRD9” (C4 THERAPEUTICS, INC., priority 2021, published 2024).
Where two headings read alike, the source gives them in different places.

Key:
[1] = Crystallization from hot saturated solutions by fast cooling; assay type: physicochemical; settings: for Comments / XRPD: hot saturated solution
Protocol: Samples with no precipitates were put in −20° C. freezer for crystallization. Precipitates were collected by filtration. The solid part (wet cake) were investigated by XRPD.

BRD9 = molecular target: T1, BRD9 (Homo sapiens, UniProt Q9H8M2); assay: BRD9 HiBiT degradation assay in 293T.166 (HEK293T.166) cells; assay type: cell-based; parameters: endogenously expressing BRD9 with HiBiT fusion tag via CRISPR; host or cells: HEK293T.166 (293T.166, BRD9-HiBiT HEK293, LgBiT by lentivirus)
T1 sequence (Q9H8M2 1-597): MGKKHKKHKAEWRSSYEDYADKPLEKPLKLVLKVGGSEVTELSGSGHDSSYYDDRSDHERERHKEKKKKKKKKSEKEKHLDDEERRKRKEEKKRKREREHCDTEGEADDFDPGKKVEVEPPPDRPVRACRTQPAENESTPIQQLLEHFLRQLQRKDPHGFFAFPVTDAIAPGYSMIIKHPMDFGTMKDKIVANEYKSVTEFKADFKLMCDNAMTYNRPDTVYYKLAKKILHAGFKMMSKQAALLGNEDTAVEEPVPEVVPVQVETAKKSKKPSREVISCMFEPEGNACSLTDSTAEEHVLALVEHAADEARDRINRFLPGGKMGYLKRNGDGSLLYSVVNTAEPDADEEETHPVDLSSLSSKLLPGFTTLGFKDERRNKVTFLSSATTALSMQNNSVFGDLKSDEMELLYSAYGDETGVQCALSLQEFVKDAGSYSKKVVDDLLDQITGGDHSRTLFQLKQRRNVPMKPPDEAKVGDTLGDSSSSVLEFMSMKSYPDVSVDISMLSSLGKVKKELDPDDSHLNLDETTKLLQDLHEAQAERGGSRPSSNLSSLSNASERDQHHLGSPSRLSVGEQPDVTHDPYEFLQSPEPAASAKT
Protocol: Selected compounds were tested in a BRD9 degradation assay using the HiBit Method.
Dulbecco's modified Eagle medium (DMEM) without phenol red and fetal bovine serum (FBS) were purchased from Gibco (Grand Island, NY, USA). Nano-Glo® HiBiT Lytic Assay System was purchased from Promega (Madison, WI, USA). 293T.166 (BRD9-HiBiT) cell line, endogenously expressing BRD9 with HiBiT fusion tag via CRISPR and ectopically expressing LgBiT tag, was purchased from Promega (Madison, WI, USA). 293T.167 (BRD7-HiBiT) cell line, endogenously expressing BRD7 with HiBiT fusion tag via CRISPR and ectopically expressing LgBiT tag, was purchased from Promega (Madison, WI, USA). 293T.92 (BRD4-HiBiT) cell line, endogenously expressing BRD4 with HiBiT fusion tag via CRISPR and ectopically expressing LgBiT tag, was generated in-house. Cell culture flasks and 384-well microplates were acquired from VWR (Radnor, PA, USA).
BRD9 degradation was determined based on quantification of luminescent signal using Nano-Glo® HiBiT Lytic Assay kit. Test compounds were added to the 384-well plate from a top concentration of 10 μM with 11 points, half log titration in duplicates. 293T.166 cells were added into 384-well plates at a cell density of 10,000 cells per well. The plates were kept at 37° C. with 5% CO2 for 2 hours. BRD7 and BRD4 degradation was similarly determined with 293T.167 cells and 293T.92 cells, respectively. The cells treated in the absence of the test compound were the negative control and the cells without Nano-Glo® HiBiT Lytic reagent were the positive control. After 2-hour incubation, Nano-Glo® HiBiT Lytic Assay reagents were added to the cells. Luminescence was acquired on EnVision® Multilabel Reader (Catalog No. 2104-0010, Perkin Elmer Inc., Dumfries, VA, USA).
This assay evaluates the degradation of BRD9 induced by treatment with Compound 1 or Compound 2 as measured by luminescence using Nano-Glo® HiBiT Lytic Assay System in HEK293 cells CRISPR-edited to endogenously express HiBiT tagged BRD9 and exogenously express LgBiT protein.
Nano-Glo® HiBiT Lytic Assay System was purchased from Promega (Catalog No. N3050, Madison, WI, USA). BRD9-HiBiT HEK293 cells were purchased from Promega (Catalog No. CS302348, Madison, WI, USA). The cells were maintained in Dulbecco's modified Eagle medium (DMEM) without phenol red (Catalog No. 12430112, ThermoFisher Scientific, Waltham, MA, USA) supplemented with 10% fetal bovine serum (FBS) (Catalog No. 16000-044, Gibco, Grand Island, NY, USA) at 37° C. in an atmosphere of 5% CO2 in air. The HiBiT polypeptide tag was introduced into the C-terminus of the endogenous BRD9 locus by CRISPR-Cas9 and the LgBiT protein was introduced via Lentiviral infection to produce the modified HEK293T.166 cell line. The HiBiT polypeptide and LgBiT protein allow reconstitution of NanoBiT enzyme in the cells. The Nano-Glo® HiBiT Lytic Substrate was then added and activated by the NanoBiT enzyme following cell lysis to produce a luminescent signal that is directly proportional to the amount of HiBiT-tagged BRD9.
The HEK293T.166 cells were routinely sub-cultured to maintain cell density between 30-80% confluence, not to exceed 20 passages. Cells were washed with PBS pH 7.4 (Catalog No. 10010049, ThermoFisher Scientific, Waltham, MA, USA), trypsinized for 5 minutes at 37° C., and resuspended in fresh growth media without phenol red. An aliquot was diluted 2× with Trypan Blue solution 0.4% (Catalog No. 15250061, ThermoFisher Scientific, Waltham, MA, USA) and cell count determined. Cell concentration was adjusted with growth media without phenol red to 3.3×10^5 cells/mL.
Compound 1 or Compound 2 was prepared by dissolving neat compounds in DMSO (Catalog No. D8418, Sigma-Aldrich, Inc., St. Louis, MO, USA) to generate 10 mM stock solution and stored at −20° C. […]

COc1cc(-c2cn(C)c(=O)c(C)c2C)cc(OC)c1CN1CC[C@H](N2CCN(c3ccc(N[C@H]4CCC(=O)NC4=O)cc3F)CC2)C(F)(F)C1 [Compound 1, (S)-3-((4-(4-((S)-1-(2,6-dimethoxy-4-(1,4,5-trimethyl-6-oxo-1,6-dihydropyridin-3-yl)benzyl)-3,3-difluoropiperidin-4-yl)piperazin-1-yl)-3-fluorophenyl)amino)-piperidine-2,6-dione]
Comments: form after seeding ([1]; 2-MeTHF, add Pattern G as seeds, slurry for 5 days): Pattern G
Comments ([1]; 2-MeTHF): Clear solution
XRPD ([1]; Acetone): Pattern B
XRPD ([1]; Ethanol): Pattern F
XRPD ([1]; Ethyl acetate): Pattern F
Comments ([1]; Methanol): Clear solution
% BRD9 Remaining Relative to Vehicle Control at 2 hr, Mean (BRD9; 0.010 nM): 92.3%
% BRD9 Remaining Relative to Vehicle Control at 2 hr, Mean (BRD9; 0.032 nM): 96.4%
% BRD9 Remaining Relative to Vehicle Control at 2 hr, Mean (BRD9; 0.100 nM): 91.6%
% BRD9 Remaining Relative to Vehicle Control at 2 hr, Mean (BRD9; 0.315 nM): 86.4%
% BRD9 Remaining Relative to Vehicle Control at 2 hr, Mean (BRD9; 0.997 nM): 76.7%
% BRD9 Remaining Relative to Vehicle Control at 2 hr, Mean (BRD9; 3.15 nM): 51.6%
% BRD9 Remaining Relative to Vehicle Control at 2 hr, Mean (BRD9; 10.0 nM): 21.7%
% BRD9 Remaining Relative to Vehicle Control at 2 hr, Mean (BRD9; 31.7 nM): 7.9%
% BRD9 Remaining Relative to Vehicle Control at 2 hr, Mean (BRD9; 100 nM): 5.0%
% BRD9 Remaining Relative to Vehicle Control at 2 hr, Mean (BRD9; 316 nM): 5.7%
% BRD9 Remaining Relative to Vehicle Control at 2 hr, Mean (BRD9; 999 nM): 4.8%
DC50 (BRD9; 293T.166 cells, 2.0 hours, read-out: HiBiT-Degradation 293T.166 BRD9 2.0 hours (DC50)): < 100 nM
Emax (BRD9; BRD9-HiBiT, 293T.166 cells, 2 hours, read-out: Mean Emax (%) ± SD): 4.14 ± 1.15%
Dmax (BRD9; HEK293T.166 cells, 2-hour treatment, read-out: maximal degradation of BRD9): > 95%
DC50 (BRD9; summary statement, read-out: DC50 against BRD9): 2 to 75 nM
